Source: US20040204475A1, “Pharmaceutical combination” (priority 2003, published 2004)
Like-named read-outs stand apart in the source and are kept apart here.

Key:
[1] = α-polymorphic hydrobromide salt, oral, cited from earlier work
[2] = Time lag between oral administration and maximal plasma levels, eletriptan in combination with sodium bicarbonate; format: in vivo; settings: administered in combination with sodium bicarbonate, in some cases
Description: The advantage to the patient arising from the correspondingly swift amelioration of symptoms is self-evident.

[3] = 30 mg eletriptan, fasted, cited from earlier work
[4] = Tablet hardness relative to tablets made from a placebo blend; format: physicochemical; settings: eletriptan at 2.5% w/w of tablet
Experimental: A mixture of eletriptan hydrobromide (24.24 mg, equivalent to 20 mg of eletriptan free base), sodium bicarbonate (USP, 630 mg) and microcrystalline cellulose (Avicel PH 102, Ph. Eur., 137.76 mg) were blended for 10 minutes, passed through a […] screen and re-blended for a further 10 minutes. Screened intragranular magnesium stearate (Ph. Eur., 8 mg) was added and the mixture was lubricated for 5 minutes. […] The blend was made into a tablet by direct compression. The tablets so produced had excellent weight uniformity and friability.

Structure (SMILES): CN1CCC[C@@H]1Cc1c[nH]c2ccc(CCS(=O)(=O)c3ccccc3)cc12 [eletriptan, 3-{[1-methylpyrrolidin-2(R)-yl]methyl}-5-(2-phenylsulfonylethyl)-1H-indole]
- Tmax (time between administering a standard tablet and maximal plasma concentrations) ([1]; fasted subjects): about 1 hour
- Tmax (time between administering a standard tablet and maximal plasma concentrations) ([1]; fed subjects): up to 4 hours
- time lag between oral administration and maximal plasma levels of drug [2]: 30 min
- Tmax ([3]; migraine-free patients): 1.3 ± 1.3 h
- Tmax ([3]; patients with migraine): 2.8 ± 2.1 h
- increase in tablet hardness [4]: 0.7 kp
